Reference: patent US20160291027A1, “METHODS FOR […] ABILITY OF A Z[…] COMPOUND TO TREAT CANCER” (Eisai R&D Management Co., Ltd., priority 2007, published 2016)
pIC50: −log10 of the molar value.

How the values were obtained:
SK-MEL-28 = assay: Western blotting of response markers; format: cell-based; conditions: sensitive cell line SK-MEL-28, 24 hours
Protocol: (§1) In order to identify markers that could serve as response markers for determining whether a cancer in a subject is sensitive to treatment with a zearalenone analog compound, phospho-ERK, total ERK protein, phospho-pRB, total pRB, and Cyclin D1 protein levels in a cell line sensitive to Compound 106 (e.g., SK-MEL-28) and cell lines resistant to Compound 106 (e.g., AU-565) were examined by Western blotting. 2×10^6 cancer cells (SK-MEL-28 and AU-565) were plated into a 100 mm dish and incubated for two days. Test compound, e.g., Compound 106, was then added to each dish for 24 hours at a concentration ranging from […] to […]. Culture medium was added to the cells as a control. SK-MEL-28 and AU-565 cell lysate proteins were subjected to SDS-PAGE under reducing condition and immunoblotted with an antibody against phospho-ERK1/2 (catalog #9101, Cell Signaling Technology®, Danvers, Mass.), phospho-pRB (catalog #9307, Cell Signaling Technology®, Danvers, Mass.), or Cyclin D1 (catalog #sc-8396, Santa Cruz, Calif.). ERK1 (catalog #sc-93, Santa Cruz, Calif.) or pRb (catalog #sc-102, Santa Cruz, Calif.) antibody was used for the detection of the total amount of protein.

AU-565 = assay: Western blotting of response markers; format: cell-based; conditions: resistant cell line AU-565; 24 hours; concentration dependent
Protocol: as §1

[1] = tested on: SF-295 human glioblastoma xenografts; assay: Plasma human IL-8 (ELISA) in tumor bearing mice; format: in vivo; conditions: SF-295 tumor bearing mice; 40 mg/kg i.v. QD×4; 24 hours after the fourth dosing
Source text: (§2) In order to determine whether plasma IL-8 levels could be measurable in tumor xenograft bearing mice and whether plasma IL-8 levels change after treatment with Compound 106, COLO-829 and UACC-62 melanoma xenografts were established as Compound 106 sensitive xenografts in female nude mice. SF-295 human glioblastoma (BRAF wild-type) xenografts were established as an Compound 106 resistant tumor model in female nude mice. Female athymic NU/NU mice were inoculated subcutaneously with COLO-829, UACC-62 human melanoma cancer cells, or SF-295 human glioblastoma cells. Those animals that developed tumors of approximately 250 mm^3 were selected and randomized to two groups. The experiment consisted of a vehicle-treated and 40 mg/kg Compound 106-treated groups of 8 mice per group on the first day of treatment. Compound 106 was administered intravenously (i.v.) on a QD×4 (every day for a total of four injections) dosing schedule. The subcutaneous tumor volumes were measured on the first day of treatment and 24 hours after the fourth treatment. Heparinized blood was collected from these mice 24 hours after the fourth treatment with Compound 106 using a cardiac puncture, and plasma was isolated. The levels of human IL-8 in the plasma were determined by ELISA.

[2] = tested on: UACC-62 melanoma xenografts; assay: Plasma human IL-8 (ELISA) in tumor bearing mice; format: in vivo; conditions: UACC-62 xenograft; 40 mg/kg i.v. QD×4; 24 hours after the fourth dosing
Source text: as §2

[3] = tested on: COLO-829 melanoma xenografts; assay: Plasma human IL-8 (ELISA) in tumor bearing mice; format: in vivo; conditions: COLO-829 xenograft; 40 mg/kg i.v. QD×4; 24 hours after the fourth dosing
Source text: as §2

SK-MEL-24 = assay: MTS cell growth inhibition assay; format: cell-based; conditions: Homo sapiens, 96 h, SK-MEL-24 melanoma, BRAF mutated, four days
Protocol: (§3) Cell growth inhibition following treatment with a zearalenone analog compound, Compound 106, was assessed in a panel of cancerous cell lines from different tissue types, which carry mutations in BRAF and/or RAS. A panel of 21 cell lines was tested with varying concentrations of Compound 106. All assays were performed in a 96 well format. Cell viability was assessed after four days following treatment. Cell viability was assessed with a MTS Assay (CellTiter96®AqueousOne Solution Cell Proliferation Assay, Promega) in a panel of cell lines carrying no mutations or various BRAF (V600E) and/or RAS mutations to determine the effect of BRAF and RAS genotype on drug sensitivity.

HT-29 = assay: MTS cell growth inhibition assay; format: cell-based; conditions: Homo sapiens, 96 h, HT-29 colorectal, BRAF mutated, four days
Protocol: as §3

[4] = tested on: BRAF-mutated xenograft models (breast, colon, and melanoma cell lines); assay: Other xenograft models, BRAF-mutated; format: in vivo, mice; conditions: 40 mg/kg i.v. QD×5 for 2 weeks
Protocol: Additionally, one, five, and seven out of eight animals in the groups treated with Compound 106 at doses of 10, 20, or 40 mg/kg, respectively, were tumor-free at the end of the study on day 59. […] Compound 106 was also tested in other xenograft models, in which BRAF-mutated cells, including breast, colon, and melanoma cell lines, or wildtype cells, including pancreatic cell lines, were transplanted subcutaneously into female nude mice. Compound 106 or a vehicle control was administered intravenously.

SMILES: CCNc1cc(O)c2c(c1)/C=C/C[C@H](O)[C@H](O)C(=O)/C=C\[C@@H](C)[C@H](C)OC2=O [Compound 106]
- Protein levels of p27 (SK-MEL-28): increased
- phospho-pRB protein (SK-MEL-28): decrease
- protein levels of Cyclin D1 (SK-MEL-28): decreased
- protein levels of phospho-ERK (SK-MEL-28; concentration dependent): inhibited
- protein levels of phospho-ERK (AU-565): inhibited
- Plasma IL-8 levels [1]: did not change
- Plasma IL-8 levels [2]: almost completely blocked
- Plasma IL-8 levels [3]: almost completely blocked
- pIC50 (SK-MEL-24): > 7.00
- pIC50 (HT-29): > 7.00
- tumor regression ([4]; strongest effect of the range): about 73%
- tumor growth inhibition ([4]; weakest effect of the range: tumor stasis (but not regression) during treatment): > 80%
